Test results: patent US12564622B2, “Preventing cytokine release syndrome” (priority 2017, dated 2026)
Several values for one entry are separate records, joined by “and”; a condition that tells them apart may be missing. Identical values can stand only once. Entries after “also recorded” stand apart in the source; their conditions may differ.

Experiments:
[1] = test system: polymicrobial peritoneal sepsis induced by CLP; experiment: Cecal ligation and puncture (CLP) sepsis; format: in vivo, mouse (C57BL/6); details: ANP given after CLP
[2] = test system: Eμ-ALL bearing C57BL/6 mice treated with mCART19; experiment: mCART19 treatment of syngeneic Eμ-ALL B-ALL model; format: in vivo, mouse (C57BL/6); details: for catecholamine and cytokine release: 24 and 72 hours after mCART19; for therapeutic (antitumor) efficacy versus mCART19 alone: prophylaxis with ANP pump or metyrosine IP
Method: The Eμ-ALL cell line was derived from a lymphoid malignancy in an Eμ-myc transgenic mouse and upon IV injection, can develop B-ALL in C57BL/6 mice. The Eμ-ALL cells were co-cultured with feeder NIH-3T3 cells that were irradiated at 60 Gy, in RPMI 1640 media supplemented with 10% FBS, 0.05 mM 2-Mercaptoethanol and antibiotics. Eμ-ALL cells were transfected with luciferase via lentivirus. 2×10^6 Eμ-ALL cells were IV injected in female 6-8 week-old C57BL/6 mice via tail vein and after 6 days, mice were IP injected with cyclophosphamide (CPA) at 100 mg/kg for pre-conditioning as described elsewhere (see, e.g., Davila et al., 2013 PLoS One 8:e61338). One day after CPA treatment, 10×10^6 mCART19 cells were IV injected in the mice. Metyrosine was injected IP at 40 mg/kg/day for three days before the mCART19 injection. On the day of mCART19 injection, a fourth dose of 40 mg/kg was given IP and the mice were subsequently injected four more times at daily intervals at 30 mg/kg. One day before mCART19 injection, mini-osmotic pumps (ALZET) loaded with hANP with a release rate of 12 μg/day were implanted subcutaneously in the back of mice. Tumor load was monitored by Xenogen before and after mCART19 injection.

[3] = test system: polymicrobial peritoneal sepsis induced by CLP; experiment: Cecal ligation and puncture (CLP) sepsis; format: in vivo, mouse (C57BL/6); details: for circulating pro-inflammatory cytokines after CLP: pre-treatment
Method: (§1) Cecal ligation and puncture (CLP) was performed as described elsewhere (Rittirsch et al., 2009 Nature Protocols, 4:31-6). Briefly, six-to-eight week old female C57BL/6 mice were anesthetized and following abdominal incision, the cecum was ligated at about 14 the distance from the luminal entry to its tip. The ligated cecum was punctured through and through with a 22 G needle at ½ and ¾ the distance from the luminal entry to its tip. A small amount of the cecal content was gently pushed out of the four openings into the peritoneum. Subsequently, the abdominal muscles were sutured and the skin was closed with two staples. Five hundred microliters of saline were immediately injected subcutaneously to the mice. For the groups treated with antibiotics, imipenem (Sigma) was injected subcutaneously at 25 mg/kg starting from 20 hours after CLP, with a schedule of twice a day on day one and once a day thereafter for 10 days. Human ANP (Sigma) was dissolved in saline, loaded in mini-osmotic pumps (ALZET) with a release rate of 12 μg/day and implanted subcutaneously in the back of mice 12 hours before the CLP, with pumps loaded with saline serving as controls. Metyrosine was freshly dissolved in PBS and injected IP at 60 mg/kg/day for three days before the CLP. Twenty minutes before the CLP, metyrosine was injected at 60 mg/kg IP into the right side. The control groups were injected with PBS. For the following 4 days, metyrosine was injected at 30 mg/kg/day IP into the right side. Hydration of mice was supported by daily subcutaneous injection of 0.5 ml saline.
as §1, with “CLP” for “Cecal ligation and puncture (CLP)”, “(see, e.g., Rittirsch” for “(Rittirsch”, “2008 Rev Immunol 8:776-787).” for “2009 Nature Protocols, 4:31-6).”, “6-8 weeks” for “six-to-eight week”, “¼” for “14”, “days.” for “days. Human ANP (Sigma) was dissolved in saline, loaded in mini-osmotic pumps (ALZET) with a release rate of 12 μg/day and implanted subcutaneously in the back of mice 12 hours before the CLP, with pumps loaded with saline serving as controls.”

[4] = test system: co-culture of hCART19 and Raji cells; experiment: In vitro co-culture of Raji and hCART19 cells; format: cell-based, human; details: Raji with hCART19 (1:5), 24 hours; metyrosine 2 mM or ANP 5 μg/ml
Description: Human CD19scFv-CD28-4-1BB-CD3ζ CAR-T cells (PM-CAR1003) were purchased from Promab Biotechnologies and maintained less than 7 days in AIM-V medium (GIBCO) supplemented with 300 IU/ml of hIL2 (Peprotech), 5% FBS and antibiotics (Car-T medium).

[5] = test system: anti-CD3 antibody-induced CRS in BALB/c mice; experiment: Anti-CD3 treatment induced CRS; format: in vivo, mouse (BALB/c)
Method: (§2) Metyrosine was freshly dissolved in PBS and injected IP at 60 mg/kg/day for three days prior to injection of anti-CD3 antibodies. […] Thirty minutes before the IP injection of the anti-mouse CD3 antibody (BioXcell, 145-2C11), metyrosine was IP injected at 60 mg/kg into the contralateral side. A single additional dose of 30 mg/kg metyrosine was injected IP on the following day. Control groups were injected with PBS at the same times.
as §2, with “times. For experiments with conditional TH knockout mice, 4-6 week-old LysMcre: TH fl/fl (TH^ΔLysM) mice with C57BL/6 background were used and LysMcre: TH+/+ mice of the same age were used as control. In these experiments, 200 μg/mouse anti-mouse CD3 antibody was injected IP.” for “times.”

[6] = test system: human U937-derived macrophage cells; experiment: U937 macrophage catecholamine and cytokine production; format: cell-based; details: LPS 1 μg/ml and/or epinephrine 15 ng/ml, metyrosine 2 mM
Method: Human U937 cells were cultured in RPMI 1640 media with 5% FBS and antibiotics, and were differentiated to M1 macrophage-like cells by incubating with 20 nM phorbol 12-myristate 13-acetate (PMA, Sigma) for 24 hours and further culturing in RPMI 1640 media with 5% FBS and antibiotics for another 72 hours. The experiments with U937 were set up in the same way as described above with peritoneal macrophages. […] Cells were incubated for 24 hours with LPS at 1 μg/ml.

[7] = 24 hours after anti-CD3, metyrosine pre-treatment

Row | SMILES | survival after CLP, treatment after rather than before CLP [1] | catecholamine and cytokine release [2] | therapeutic (antitumor) efficacy versus mCART19 alone [2] | circulating pro-inflammatory cytokines after CLP ([3]; 24 hours after CLP) | survival after CLP ([3]; ANP by osmotic pump implanted 12 hours before CLP) | pathologic examination (peritoneum, lungs, liver) ([3]; ANP pre-treated, 24 hours after CLP) | catecholamine production [4] | cytokine production [4] | IL-2 and IFN-γ [5, 7] | circulating catecholamines [5, 7] | pro-inflammatory cytokines (IL-6, TNF-α, KC, MIP-2, MIP-1α) [5, 7] | mice surviving (of mice pre-treated) ([5]; anti-CD3 125 μg/mouse, metyrosine pre-treatment) | catecholamines and cytokines [6] | mice surviving CLP (acute phase) ([3]; metyrosine IP pre-treatment) | fraction of mice surviving CLP ([3]; metyrosine pre-treatment plus imipenem from 20 hours after CLP)
1 | CC[C@H](C)[C@@H]1NC(=O)[C@H](CCCNC(=N)N)NC(=O)[C@H](CC(=O)O)NC(=O)[C@H](CCSC)NC(=O)[C@H](CCCNC(=N)N)NC(=O)CNC(=O)CNC(=O)[C@H](Cc2ccccc2)NC(=O)[C@@H](NC(=O)[C@H](CO)NC(=O)[C@H](CO)NC(=O)[C@H](CCCNC(=N)N)NC(=O)[C@H](CCCNC(=N)N)NC(=O)[C@H](CC(C)C)NC(=O)[C@@H](N)CO)CSSC[C@@H](C(=O)N[C@@H](CC(N)=O)C(=O)N[C@@H](CO)C(=O)N[C@@H](Cc2ccccc2)C(=O)N[C@@H](CCCNC(=N)N)C(=O)N[C@@H](Cc2ccc(O)cc2)C(=O)O)NC(=O)CNC(=O)[C@H](CC(C)C)NC(=O)CNC(=O)[C@H](CO)NC(=O)[C@H](CCC(N)=O)NC(=O)[C@H](C)NC(=O)CNC1=O [ANP, atrial natriuretic peptide] | did not rescue the mice | reduced | matched the therapeutic efficacy | greatly reduced | almost half of the animals survived the acute phase | less peritoneal inflammation, pulmonary septal thickening, and hepatic inflammation; also recorded: lower or absent pulmonary septal thickening and vacuolization | – | – | – | – | – | – | – | – | –
2 | C[C@](N)(Cc1ccc(O)cc1)C(=O)O [metyrosine, α-methyl-tyrosine] | – | reduced | matched the therapeutic efficacy | substantially reduced | – | – | significantly decreased; also recorded: suppressed the catecholamine surge | significantly decreased; also recorded: blocked | not significantly affected | reduced to near normal levels; also recorded: significantly reduced | major reductions | eleven of the twelve; also recorded: twelve of the fifteen | Comparable results were obtained | 20% and 22% | > ⅔
